Among the test systems are 786-0; SK-OV-3; OVCAR-4; HCT-116; RXF 393; SW-620; MOLT-4; NCI-H226; A498; RPMI-8226; OVCAR-3; UACC-62; HL-60; K562; CCRF-CEM; UO-31; SF-295; SNB-19; HCC 2998.
What all share (test): NCI-60 cell line screen, 48 h

The record followed here is ChEMBL document CHEMBL1201862, “PubChem BioAssay data set” (2004).

SMILES strings stand for the structures.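 48-hour exposure; five concentrations; linearly interpolated endpoints. At the GI50, growth is halved.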 Calls of active or inactive are those of the source. No stated cut-off is given here; in the data, active = GI50 up to about 1.1 µM and inactive = higher. Where only a bound is given, the exact number is not on record here.

Take `COC(C(=O)NCCCCNC(=O)C(OC)c1ccccc1)c1ccccc1` (centres undefined): the GI50 with 786-0, in the assay on SK-OV-3, in the assay on OVCAR-4, with HCT-116, in the assay on RXF 393 and in the assay on SW-620 was > 100 µM (inactive) each time. Further, the GI50 in the assay on MOLT-4, in the assay on NCI-H226, in the assay with A498, in the assay on RPMI-8226, in the assay on OVCAR-3 and with UACC-62 was > 100 µM (inactive) throughout. The GI50 in the assay on HL-60, in the assay on K562, with CCRF-CEM, with UO-31, in the assay with SF-295 and with SNB-19 was > 100 µM (inactive) throughout.
Turning to `CCC(=O)OC[n+]1ccc2c(C)c3[nH]c4ccccc4c3c(C)c2c1`, the GI50 in the assay with 786-0 was 0.767 µM (active); with OVCAR-4 it was 0.505 µM (active); with HCT-116 it was 0.115 µM (active); in the assay with RXF 393, 0.552 µM (active); in the assay on SW-620, 0.173 µM (active); in the assay on MOLT-4, 0.0358 µM (active). Further, the GI50 in the assay on NCI-H226 is 0.735 µM (active); in the assay on A498 it was 1.21 µM (inactive); with RPMI-8226 it was 0.284 µM (active); in the assay with OVCAR-3, 1.33 µM (inactive); in the assay with HL-60 it was 2.45 µM (inactive); in the assay on K562 it was 0.618 µM (active). The GI50 in the assay with CCRF-CEM is 0.444 µM (active); in the assay on SF-295, 0.532 µM (active); in the assay on SNB-19 it was 1.6 µM (inactive).
`O=C(/C=C/c1ccccc1Cl)c1ccccc1Cl`: the GI50 with 786-0 was 15.2 µM (inactive); with SK-OV-3 it was 72.6 µM (inactive); in the assay on OVCAR-4, 20.7 µM (inactive); with HCT-116 it was 14.6 µM (inactive); with SW-620, 12.6 µM (inactive); in the assay on MOLT-4, 23.8 µM (inactive). The GI50 in the assay with NCI-H226 was 45.9 µM (inactive); in the assay with A498, 49.1 µM (inactive); with RPMI-8226, 16 µM (inactive); in the assay with OVCAR-3 it was 18.9 µM (inactive); with UACC-62, 16.7 µM (inactive); in the assay on HCC 2998 it was 21.6 µM (inactive). Further, the GI50 was 22.4 µM (inactive) in the assay on HL-60; 21 µM (inactive) in the assay on K562; 20.4 µM (inactive) in the assay on CCRF-CEM; 15.9 µM (inactive) in the assay on UO-31; 22.6 µM (inactive) with SF-295; 15.7 µM (inactive) in the assay on SNB-19.
Take `CC12CCC(CC1)C(C)(C)O2` [EUCALYPTOL]: the GI50 was > 100 µM (inactive) with 786-0; 57.5 µM (inactive) in the assay with SK-OV-3; 61.1 µM (inactive) in the assay on OVCAR-4; 13.6 µM (inactive) in the assay with RXF 393; 13.7 µM (inactive) in the assay on MOLT-4; 0.923 µM (active) in the assay with A498. Besides, the GI50 in the assay on RPMI-8226 was 23.4 µM (inactive); in the assay with OVCAR-3, 36.1 µM (inactive); in the assay on UACC-62 it was 10 µM (inactive); in the assay with HCC 2998, 26.4 µM (inactive); with HL-60, 17.1 µM (inactive); in the assay on UO-31, 27.7 µM (inactive). For the same compound, the GI50 in the assay on SF-295 was 21.5 µM (inactive).
With `Cc1nc2ccccc2c(=O)n1/N=C(\N=N\c1ccccc1Cl)c1ccccc1`, the GI50 in the assay with 786-0 was 19 µM (inactive); with SK-OV-3 it was 31 µM (inactive); in the assay on HCT-116, > 10 µM (inactive); in the assay with RXF 393, 23 µM (inactive); in the assay with SW-620, 22.7 µM (inactive); with MOLT-4, > 10 µM (inactive). Further, the GI50 is 27.5 µM (inactive) in the assay with A498; 17 µM (inactive) in the assay on RPMI-8226; 17.5 µM (inactive) in the assay on UACC-62; 15.3 µM (inactive) in the assay on HL-60; 17.3 µM (inactive) in the assay on CCRF-CEM; 28 µM (inactive) in the assay with UO-31. In the assay on SNB-19, the GI50 is 74.1 µM (inactive).
Turning to `C=CCNC1=NC(=O)C(CC(=O)Nc2ccc([N+](=O)[O-])cc2[N+](=O)[O-])S1` (centres undefined), the GI50 with 786-0 was > 100 µM (inactive); in the assay with SK-OV-3 it was > 100 µM (inactive); in the assay on OVCAR-4 it was 95.7 µM (inactive); with HCT-116 it was > 100 µM (inactive); with RXF 393 it was > 100 µM (inactive); with SW-620, > 100 µM (inactive). Moreover, the GI50 with MOLT-4, with NCI-H226, in the assay with A498, in the assay on OVCAR-3, in the assay on UACC-62 and in the assay with HCC 2998 was > 100 µM (inactive) each time. Also, the GI50 in the assay on HL-60 was 52.5 µM (inactive); in the assay on CCRF-CEM, > 100 µM (inactive); in the assay on UO-31, 84.5 µM (inactive); in the assay on SF-295 it was > 100 µM (inactive); in the assay on SNB-19 it was > 100 µM (inactive).
Turning to `O=C1C2C=CC(C2)C(c2ccc(O)cc2)N1O` (centres undefined), the GI50 in the assay with 786-0, with SK-OV-3, in the assay on OVCAR-4, in the assay on HCT-116, with SW-620 and in the assay on MOLT-4 was > 100 µM (inactive) throughout. For the same compound, the GI50 in the assay on NCI-H226, in the assay on A498, in the assay on RPMI-8226, in the assay with OVCAR-3, in the assay on UACC-62 and in the assay with HCC 2998 was > 100 µM (inactive) each time. Further, the GI50 in the assay with HL-60, in the assay with K562, in the assay with CCRF-CEM, in the assay on UO-31, with SF-295 and with SNB-19 was > 100 µM (inactive) each time.
Consider `COC(=O)[C@@]12C3=NO[C@]1(C(=O)OC)C(O[Si](C)(C)C(C)(C)C)[C@H]1OC(C)(C)O[C@H]1[C@@H]2C(OCc1ccccc1)CC3` (some centres undefined), for which the GI50 in the assay with 786-0 is 70.5 µM (inactive); in the assay on SK-OV-3 it was 25.6 µM (inactive); in the assay on OVCAR-4, 22.3 µM (inactive); in the assay with HCT-116, 41.8 µM (inactive); with SW-620 it was > 100 µM (inactive); in the assay on MOLT-4, 9.66 µM (inactive). Moreover, the GI50 in the assay on NCI-H226 was 88.7 µM (inactive); in the assay on A498 it was 38.3 µM (inactive); in the assay with RPMI-8226, > 100 µM (inactive); with OVCAR-3 it was 46.5 µM (inactive); in the assay with UACC-62, 41.7 µM (inactive); with HCC 2998 it was 63.1 µM (inactive). Also, the GI50 in the assay with HL-60 was 6.49 µM (inactive); with K562 it was > 100 µM (inactive); in the assay on CCRF-CEM it was > 100 µM (inactive); in the assay on UO-31, 41.3 µM (inactive); with SF-295 it was 37.3 µM (inactive); in the assay with SNB-19 it was 25.8 µM (inactive).
For `COc1cc(/C=C\c2ccc(O)cc2)cc(OC)c1OC`, the GI50 in the assay on 786-0 is 8.59 µM (inactive); in the assay on SK-OV-3 it was 3.88 µM (inactive); in the assay on OVCAR-4, 8.97 µM (inactive); with HCT-116 it was 3.96 µM (inactive); in the assay with RXF 393 it was 3.78 µM (inactive); in the assay on SW-620 it was 2.65 µM (inactive). The GI50 was 4.24 µM (inactive) in the assay with MOLT-4; 22.3 µM (inactive) with NCI-H226; 29.4 µM (inactive) in the assay with A498; 0.402 µM (active) in the assay on RPMI-8226; 2.32 µM (inactive) in the assay with OVCAR-3; 3.37 µM (inactive) in the assay on UACC-62. Moreover, the GI50 was > 23.3 µM (inactive) with HCC 2998; 10.3 µM (inactive) in the assay with HL-60; 3.72 µM (inactive) in the assay with CCRF-CEM; 10.4 µM (inactive) in the assay on UO-31; 2.47 µM (inactive) in the assay on SF-295; 2.56 µM (inactive) in the assay on SNB-19.
For `CC(C)(C)OC(=O)N1N=NC2C3OC(CC3=O)C21` (centres undefined), the GI50 was > 100 µM (inactive) with 786-0; 18.6 µM (inactive) with SK-OV-3; > 10 µM (inactive) in the assay with OVCAR-4; > 100 µM (inactive) in the assay with HCT-116; > 10 µM (inactive) with RXF 393; > 100 µM (inactive) with SW-620. Besides, the GI50 in the assay on MOLT-4 is > 100 µM (inactive); in the assay on NCI-H226, 2.8 µM (inactive); in the assay with A498, > 100 µM (inactive); in the assay on RPMI-8226, > 100 µM (inactive); with OVCAR-3, > 100 µM (inactive); in the assay on UACC-62, > 100 µM (inactive). Besides, the GI50 in the assay with HCC 2998 is > 100 µM (inactive); in the assay on K562 it was > 100 µM (inactive); with CCRF-CEM it was 40.9 µM (inactive); in the assay with UO-31 it was > 100 µM (inactive); in the assay with SF-295 it was > 10 µM (inactive); in the assay with SNB-19, > 100 µM (inactive).
With `CN(C)CCOc1cccc2c1C(=O)c1ccccc1C2=O`, the GI50 in the assay with 786-0 was 17.6 µM (inactive); in the assay on SK-OV-3 it was 20.4 µM (inactive); in the assay on OVCAR-4, 6.14 µM (inactive); with HCT-116, 4.58 µM (inactive); with RXF 393 it was 13.8 µM (inactive); in the assay with SW-620 it was 8.32 µM (inactive). Besides, the GI50 in the assay on MOLT-4 was 3.45 µM (inactive); in the assay on NCI-H226 it was 9.95 µM (inactive); in the assay on A498 it was 18.1 µM (inactive); in the assay with OVCAR-3, 17.9 µM (inactive); in the assay on UACC-62, 16.3 µM (inactive); in the assay on HCC 2998 it was 13.9 µM (inactive). For the same compound, the GI50 with HL-60 was 12.1 µM (inactive); in the assay with K562, 11.1 µM (inactive); with CCRF-CEM, 11.4 µM (inactive); with UO-31, 4.52 µM (inactive); in the assay on SF-295, 15.1 µM (inactive); with SNB-19 it was 18.2 µM (inactive).
As to `CC1(C)S[C@H](c2ccccc2C(=O)O)N[C@@H]1CC(=O)O`, the GI50 in the assay with 786-0, in the assay with OVCAR-4, with HCT-116, in the assay with RXF 393, in the assay on SW-620 and in the assay with MOLT-4 was > 100 µM (inactive) each time. The GI50 with NCI-H226, in the assay with A498, in the assay with RPMI-8226, in the assay with UACC-62, with HL-60 and with K562 was > 100 µM (inactive) in each case. The GI50 in the assay with CCRF-CEM, in the assay on SF-295 and with SNB-19 was > 100 µM (inactive) throughout.
